Reference: patent US5229409A, “6-substituted-tetrahydrobenz[cd]indoles” (Eli Lilly and Company, priority 1991, dated 1993)

How the values were obtained:
[1] = tested on: 5-hydroxyindole acetic acid (5HIAA); experiment: whole brain 5-hydroxyindoleacetic acid (5HIAA) concentration in vivo in rats; parameters: species or system rat (male albino)
Experimental: In another experiment certain compounds of the Examples were evaluated to determine ability to affect the 5-hydroxyindoles serotonin and 5-hydroxyindole acetic acid (5HIAA), and serum corticosterone, in vivo. Male albino rats were injected subcutaneously with an aqueous solution of the compound. The pH of the solution was adjusted as necessary to solubilize the compound. A control of the solution without the test compound was similarly injected into a control animal. […] Trunk blood was collected and allowed to clot. After centrifugation, serum was stored frozen prior to analysis. The whole brain was removed and frozen on dry ice for storage prior to analysis. The serum corticosterone concentration was measured spectrofluorometrically using the procedure of Solem and Brinck-Johnson, "An Evaluation of a Method for Determination of Free Corticosteroids in Minute Quantities of Mouse Plasma", Scand. J. Clin. Lab. Invest., Suppl. 80, p. 1-14 (1965), incorporated herein by reference. 5-Hydroxyindoleacetic acid (5HIAA) concentration in whole brain was measured by liquid chromatography with electrochemical detection as reported by Fuller and Perry, "Effects of Buspirone and its Metabolite, 1-(2-pyrimidinyl)piperazine, on Brain Monoamines and Their Metabolites in Rats", J. Pharmacol. Exp. Ther., 248, p. 50-56 (1989), incorporated herein by reference.

serotonin = experiment: whole brain serotonin concentration in vivo in rats; parameters: species or system rat (male albino); conditions: 1 hour
Experimental: In another experiment certain compounds of the Examples were evaluated to determine ability to affect the 5-hydroxyindoles serotonin and 5-hydroxyindole acetic acid (5HIAA), and serum corticosterone, in vivo. Male albino rats were injected subcutaneously with an aqueous solution of the compound. The pH of the solution was adjusted as necessary to solubilize the compound. A control of the solution without the test compound was similarly injected into a control animal. The rats were decapitated one hour later. Trunk blood was collected and allowed to clot. After centrifugation, serum was stored frozen prior to analysis. The whole brain was removed and frozen on dry ice for storage prior to analysis. The serum corticosterone concentration was measured spectrofluorometrically using the procedure of Solem and Brinck-Johnson, "An Evaluation of a Method for Determination of Free Corticosteroids in Minute Quantities of Mouse Plasma", Scand. J. Clin. Lab. Invest., Suppl. 80, p. 1-14 (1965), incorporated herein by reference. 5-Hydroxyindoleacetic acid (5HIAA) concentration in whole brain was measured by liquid chromatography with electrochemical detection as reported by Fuller and Perry, "Effects of Buspirone and its Metabolite, 1-(2-pyrimidinyl)piperazine, on Brain Monoamines and Their Metabolites in Rats", J. Pharmacol. Exp. Ther., 248, p. 50-56 (1989), incorporated herein by reference.

5-HT1D receptor = target: T1, 5-HT1D receptor (Bos taurus, UniProt F1MGM3); experiment: [3H]5-HT binding to 5-HT1D sites in caudate nuclei membranes; conditions: bovine caudate membranes, [3H]5-HT 1.7-1.9 nM, pH 7.4, 37° C
T1 construct: the caudate nuclei were dissected out and frozen at -70° C; tissue Pel-Freeze Biologicals; host or cells: bovine caudate nuclei, washed membranes
T1 sequence (F1MGM3 1-403): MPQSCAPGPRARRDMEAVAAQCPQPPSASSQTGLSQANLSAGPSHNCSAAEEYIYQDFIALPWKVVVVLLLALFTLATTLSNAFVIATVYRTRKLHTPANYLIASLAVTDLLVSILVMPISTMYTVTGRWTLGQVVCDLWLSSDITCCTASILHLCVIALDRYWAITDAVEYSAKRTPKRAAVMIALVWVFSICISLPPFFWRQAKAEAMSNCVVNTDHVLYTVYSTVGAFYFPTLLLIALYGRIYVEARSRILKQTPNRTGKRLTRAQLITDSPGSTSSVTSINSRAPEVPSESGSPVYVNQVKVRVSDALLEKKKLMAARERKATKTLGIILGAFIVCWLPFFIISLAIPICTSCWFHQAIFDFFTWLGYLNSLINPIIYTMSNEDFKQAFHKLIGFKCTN
Experimental: The affinities of the compounds at the central 5-HT1D binding sites were determined using a modification of the binding assay described by Heuring and Peroutka (J. Neurosci. 7:894-903, 1987). Bovine brains were obtained from Pel-Freeze Biologicals, and the caudate nuclei were dissected out and frozen at -70° C. until the time that the membranes were prepared for the binding assays. At that time the tissues were homogenized in 40 volumes of ice-cold Tris-HCl buffer (50 mM, pH 7.4 at 22° C.) with a Techmar Tissumizer (setting 65 for 15 sec), and the homogenate was centrifuged at 39,800 g for 10 min. The resulting pellet was then resuspended in the same buffer, and the centrifugation and resuspension process was repeated three additional times to wash the membranes. Between the second and third washes the resuspended membranes were incubated for 10 min at 37° C. to facilitate the removal of endogenous 5-HT. the final pellet was resuspended in Tris buffer to a concentration of 25 mg of original tissue wet weight/ml for use in the binding assay. […] The assay tubes were incubated for 10 min at 37° C., and the contents were then rapidly filtered through GF/B filters (pretreated with 0.5% polyethylenimine), followed by four one-mL washes with ice-cold buffer. The radioactivity trapped by the filters was quantitated by liquid scintillation spectrometry, and specific [^3 H]5-HT binding to the 5HT1D sites were defined as the difference between [^3 H]5-HT bound in the presence and absence of 10 μM 5-HT.
The affinities of compounds at the 5-HT1D receptor are expressed as IC50 values, i.e., the concentration required to inhibit 50% of the binding. These values were determined from 12-point competition curves using nonlinear regression (SYSTAT, SYSTAT, Inc. Evanston, Ill.).

[2] = 0.0003 mg/kg s.c., 1 hour, series 0.0003-0.03 mg/kg
[3] = 0.003 mg/kg s.c., 1 hour, series 0.0003-0.03 mg/kg
[4] = 0.03 mg/kg s.c., 1 hour, series 0.0003-0.03 mg/kg
[5] = 0.03 mg/kg s.c., 1 hour, series 0.03-3 mg/kg
[6] = 0.3 mg/kg s.c., 1 hour, series 0.03-3 mg/kg
[7] = 0.0003 mg/kg s.c., series 0.0003-0.03 mg/kg
[8] = 0.003 mg/kg s.c., series 0.0003-0.03 mg/kg
[9] = 0.03 mg/kg s.c., series 0.0003-0.03 mg/kg
[10] = 0.03 mg/kg s.c., series 0.03-3 mg/kg
[11] = 0.3 mg/kg s.c., series 0.03-3 mg/kg
[12] = 3 mg/kg s.c., 1 hour, series 0.03-3 mg/kg
[13] = 3 mg/kg s.c., series 0.03-3 mg/kg

Compound | 5HIAA [1, 2] [nmol/g] | 5HIAA [1, 3] [nmol/g] | 5HIAA [1, 4] [nmol/g] | 5HIAA [1, 5] [nmol/g] | 5HIAA [1, 6] [nmol/g] | Serotonin (serotonin; [7]) [nmol/g] | Serotonin (serotonin; [8]) [nmol/g] | Serotonin (serotonin; [9]) [nmol/g] | Serotonin (serotonin; [10]) [nmol/g] | Serotonin (serotonin; [11]) [nmol/g] | IC50 (5-HT1D receptor) [nM] | 5HIAA ([1]; 0.1 mg/kg orally, 5 hrs before sacrifice) [nmol/g] | 5HIAA ([1]; 0.3 mg/kg orally, 5 hrs before sacrifice) [nmol/g] | 5HIAA ([1]; 1 mg/kg orally, 5 hrs before sacrifice) [nmol/g] | 5HIAA ([1]; 3 mg/kg orally, 5 hrs before sacrifice) [nmol/g] | 5HIAA [1, 12] [nmol/g] | Serotonin (serotonin; [13]) [nmol/g]
CCCN(CCC)[C@H]1Cc2c[nH]c3ccc(C(C)=O)c(c23)C1 [Example 7, (4R)-(+)-6-acetyl-4-(di-n-propylamino)-1,3,4,5-tetrahydrobenz[cd]indole] | 1.93 ± 0.07 | 1.80 ± 0.05 | 1.34 ± 0.07 | 1.43 ± 0.02 | 1.37 ± 0.07 | 2.68 ± 0.11 | 2.74 ± 0.07 | 3.00 ± 0.10 | 2.47 ± 0.07 | 2.59 ± 0.14 | 7.46 | – | – | – | – | – | –
CCCN(CCC)[C@@H]1Cc2c[nH]c3ccc(C(C)=O)c(c23)C1 [Example 8, (4S)-(-)-6-acetyl-4-(di-n-propylamino)-1,3,4,5-tetrahydrobenz[cd]indole] | 1.91 ± 0.08 | 1.47 ± 0.04 | 1.59 ± 0.10 | 1.31 ± 0.06 | 1.36 ± 0.04 | 2.91 ± 0.12 | 2.65 ± 0.13 | 3.30 ± 0.09 | 2.58 ± 0.15 | 2.78 ± 0.13 | 96.4 | 1.67 ± 0.04 | 1.60 ± 0.07 | 1.74 ± 0.05 | 1.31 ± 0.08 | 1.35 ± 0.04 | 2.63 ± 0.12
CCCN(CCC)C1Cc2c[nH]c3ccc(C(C)=O)c(c23)C1 (racemic) [Example 2, (±)-6-Acetyl-4-(di-n-propylamino)-1,3,4,5-tetrahydrobenz[cd]indole] | 2.21 ± 0.05 | 1.79 ± 0.10 | 1.95 ± 0.04 | 1.27 ± 0.01 | 1.10 ± 0.06 | 2.71 ± 0.06 | 2.64 ± 0.11 | 3.23 ± 0.11 | 2.60 ± 0.09 | 2.54 ± 0.14 | 18.4 | – | – | – | – | 2.04 ± 0.02 | 3.25 ± 0.01
CCCN(CCC)[C@H]1Cc2c[nH]c3ccc(C(=O)C(C)C)c(c23)C1 [Example 9, (4R)-(+)-6-(2-methylpropanoyl)-4-(di-n-propylamino)-1,3,4,5-tetrahydrobenz[cd]indole] | 2.44 ± 0.06 | 2.23 ± 0.09 | 1.82 ± 0.08 | 1.38 ± 0.02 | 1.22 ± 0.04 | 2.76 ± 0.10 | 2.94 ± 0.11 | 3.08 ± 0.11 | 2.56 ± 0.07 | 2.94 ± 0.13 | 1.27 | – | – | – | – | 1.38 ± 0.08 | 2.65 ± 0.07
